Laboratory results as given in article PMC2682652 (PLoS ONE, 2009).

Test system: intraperitoneal MDA-MB-435 xenograft tumors
Assay: Tumor reduction study, peritoneal carcinomatosis
Type: in vivo, SCID-mice
Settings: 6×1.85 MBq i.p., days 16-26 after inoculation, groups of 8 mice; p = 0.04
Experimental: To generate intraperitoneal xenograft tumors, 6–8 week old SCID-mice (Charles River, Sulzfeld, Germany) were injected i.p. with 1×10^7 MDA-MB435 tumor cells. Mice were weighed weekly and were sacrificed when the mean normal body weigth decreased <25% or when mice developped tumor side effects like ascites or reduced general condititon. All experiments were performed according to the German law for the protection of animals.
SCID-mice (Charles River, Sulzfeld, Germany) were injected i.p. with 1×10^7 MDA-MB-435 cells expressing firefly luciferase in 100 µl PBS. […] All experiments were performed three times. The animals were controlled daily until they were sacrificed.

With `O=C([O-])CN(CCN(CC(=O)[O-])CC(=O)[O-])CCN(CC(=O)[O-])CC(=O)[O-].[213Bi+3]` [^213Bi-DTPA] as the compound, how does the mean survival read?
The mean survival was 48 days.
